Source: PMC11036396 (2024)
Blank lines part the entries; values can stand above or below the molecule they belong to.

What was measured:
[1] = tested on: Trp aptamer (Cy5-labelled, Trp aptamer sensor) (DNA, aptamer) AGCACGTTGGTTAGGTCAGGTTTGGGTTTCGTGC; assay: strand-displacement fluorescence; conditions: 2.7 mM KCl, 5 mM MgCl2, 500 mM NaCl
[2] = tested on: Trp aptamer (Cy5-labelled, Trp aptamer sensor) (DNA, aptamer) AGCACGTTGGTTAGGTCAGGTTTGGGTTTCGTGC; assay: strand-displacement fluorescence titration (Langmuir fit); conditions: 2.7 mM KCl, 5 mM MgCl2, 500 mM NaCl; TAB pH 7.4, 25 °C; displaces CS-10-BHQ2 quencher strand; 0.5 μM aptamer, 1.25 μM CS-10; apparent
[3] = TAB pH 7.4, displaces CS-10-BHQ2 quencher strand, distinguished from its precursor

- binding [1, 3]: yes
SMILES: COc1ccc2[nH]cc(C[C@H](N)C(=O)O)c2c1

- binding ([1]; TAB pH 7.4, 25 °C, CS-10-BHQ2 quencher strand, highest concentration 5 mM): no
SMILES: N[C@@H](Cc1ccccc1)C(=O)O

- binding [1, 3]: yes
SMILES: N[C@@H](Cc1c[nH]c2ccc(F)cc12)C(=O)O

- Ksens [2]: 3.3 [2.8–4.6, 95% credible region] mM
SMILES: N[C@@H](Cc1c[nH]c2ccccc12)C(=O)O

- binding ([1]; TAB pH 7.4, 25 °C, displaces CS-10-BHQ2 quencher strand, 5 mM compound): yes
SMILES: N[C@H](Cc1c[nH]c2ccccc12)C(=O)O
